Test [1] has as its system eEF2 kinase+/+ MEFs. Description: MTT viability assay, wild type MEFs. The test is classed as cell-based, mouse. How it is done:
(§1) MTT Survival Assay: MEFs used in this study (2×10^3 cells per well of a 96 well plate) are incubated in the presence of indicated drugs for 24 hours. Cell viability is determined using the standard MTT assay^30. Each experiment is repeated three times for each drug and each cell line using three parallel wells for each drug concentration. For colony formation assay cells are treated with indicated drugs for 24 hours and replated with complete DMEM at low density (500 cells per well in 6-well plate) in duplicate. After 10 days colonies are stained with 10 mg/ml methylene blue (Sigma Inc.) in 50% methanol.
(§2) The possible correlation between activation of eEF2 kinase and the resultant phosphorylation of eEF2 and Ca^2+ ionophore-induced cell death is addressed by comparing the viability of wild type and eEF2 kinase knockout mouse embryonic fibroblasts (MEFs) after incubation of each with different concentrations of ionomycin.
A general note: Tetrazolium assays rely on reduction of a dye to a coloured formazan, in cell work by metabolically active cells.

The test system of test [2] is eEF2 kinase−/− MEFs. In words: MTT viability assay, eEF2 kinase knockout MEFs. The test is classed as cell-based, mouse. How it is done: as §1, §2
The test system of test [3] is wild type mouse embryonic fibroblasts (MEFs). Description: Cell death in phase-contrast images, wild type MEFs. The test is classed as cell-based. Conditions: 1.6 μM doxorubicin, 24 hours.
Test [4] has as its system eEF2K-deficient cells. In words: Cell death in phase-contrast images, eEF2K-deficient MEFs. In kind it is cell-based, mouse. As to conditions: 1.6 μM doxorubicin, 24 hours.

For `Cc1ccc(C(=O)Cn2c3c(sc2=N)CCCC3)cc1` [PFTα, pifithrin α], the “effect of p53 inactivation on drug sensitivity (DOX)” value in test [1] (DOX 24 h, MTT assay) is “strongly decreasing sensitivity”; in test [2] (DOX 24 h, MTT assay) it was “only slightly affected”.
`COc1cccc2c1C(=O)c1c(O)c3c(c(O)c1C2=O)C[C@@](O)(C(=O)CO)C[C@@H]3O[C@H]1C[C@H](N)[C@H](O)[C@H](C)O1` [doxorubicin]: the cell death entry in test [3] was “significant cell death”; in test [4] it was “much less cell death”.
With `C[C@H](CCC(=O)O)C[C@H](C)C[C@H](C)C(=O)/C=C(\O)[C@H](C)C[C@H](C)C/C=C/[C@@H](C)[C@@H](O)[C@@H](C)[C@@H](O)C[C@@H]1CC[C@@](C)([C@H]2CC[C@@](C)([C@@H](C)O)O2)O1` [ionomycin], the cells die result in test [1] (10 μM ionomycin, incubation for 24 h) is on record as “approximately 70%”. Also, the cell viability entry in test [1] (increasing concentrations of ionomycin from 1 to 10 μM, 24 h) is reported as “progressive decrease of cell viability”. Moreover, the “effect on the viability” value in test [2] (same concentrations of ionomycin (1 to 10 μM), 24 h) is “virtually no effect”.

For the origin of these results see patent US8030286B2, “Methods and means for increasing resistance to cell damage” (University of Medicine and Dentistry of New Jersey, priority 2004, dated 2011).
